Measurements reported in PubChem BioAssay (NCI).
Several values for one entry are separate records, joined by “and”; a condition that tells them apart may be missing. Equal values may be shown once.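 Assay format: 96-well plates, 48-hour exposure. GI50 marks 50% less growth. TGI marks complete inhibition of growth.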

System: MDA-MB-468 breast
Assay: NCI-60 cell line screen, 48 h

SMILES | GI50 | TGI [nM]
C/C(=N\NC(=O)c1ccccc1N)c1ccccc1O | 1710 nM | 13800
Oc1ccc(Cl)cc1-c1cc(-c2ccc(Cl)cc2)n[nH]1 | 1400 nM | 6440
CCOC(=O)C#Cc1c(C(=O)OCC)nnn1Cc1ccc(C(F)(F)F)cc1 | 1880 nM | 4050
CCN1C2=C(SC(=S)C1=C1SC(C(=O)OC)=C(C(=O)OC)S1)SC(=Nc1ccc(OC)cc1)C2=O | 1730 nM | 3460
C=C1C(=O)O[C@H]2[C@H]1CC/C(COC(=O)NCc1c[nH]c3ccc(Br)cc13)=C\CC[C@@]1(C)O[C@@H]21 | 451 nM | 1930
C/C(=C\C(=N\N=C(N)N)c1ccc(Cl)cc1)c1ccc(Cl)cc1 | 125 nM | 1460
c1ccc(-c2nc([P+](c3ccccc3)(c3ccccc3)c3ccccc3)c(N3CCOCC3)o2)cc1 | 278 nM | 1060
O=C(Nc1ccc(-n2ccc3c(NC(=O)c4ccccc4)ncnc32)cc1)c1ccc(Cl)c(C(F)(F)F)c1 | 2860 nM | 9230
c1ccc(-c2cccc(-c3ccccn3)n2)nc1 | 284 nM | 1730
O=C(Cc1ccc(OCc2ccccc2)cc1)NCc1ccc2c(c1)OCO2 | 5900 nM | > 100000
CCN1CCN(Cc2ccc(NC(=O)c3nc4ccc5[nH]ncc5c4c4c3CCCC4)cc2C(F)(F)F)CC1 | 893 nM | 1790
COC(=O)[C@]12CC[C@@H](C(=O)/C=C/c3cccnc3)[C@@H]1[C@H]1CC[C@@H]3[C@@]4(C)C/C(=C/c5cccnc5)C(=O)C(C)(C)[C@@H]4CC[C@@]3(C)[C@]1(C)CC2 | 272 nM | 712
NC1(c2ccc(-c3nc4ccn5c(=O)[nH]nc5c4cc3-c3ccccc3)cc2)CCC1 | 16.9 nM and 94.3 nM and 62.6 nM | –
O=C1C=C2C(=CCOC2O)O1 (stereo not drawn) | 425 nM | 2760
C#CCN(C)CCCOc1ccc(NCc2ccc(/C=C/C(=O)NO)cc2)cc1Cl | 411 nM | 3550
COc1cc(/C=C\c2cc(/C=C\c3ccc(O)c(OC)c3)n(C(=O)COc3ccccc3)n2)ccc1O | 1710 nM | 7390
Nc1cc2ccccc2c(O)c1O | 2190 nM | 4750
CN1C(=O)C23CC4(C56CC78SSC(CO)(C(=O)N7C5Nc5ccccc56)N(C)C8=O)c5ccccc5NC4N2C(=O)C1(CO)SS3 (stereo not drawn) | < 24.1 nM | 60.6
CN(C)c1ccc(N=Nc2ccc(Br)cn2)c(O)c1 | 469 nM | 3980
CN1CCN(Cc2ccc(NC(=O)c3cncc(C#Cc4cnc5ccc(Cl)nn45)c3)cc2C(F)(F)F)CC1 | 1110 nM | 2580
Nc1c(C(=O)c2cccc(-c3ccncc3)c2)cnn1-c1ccc(F)cc1 | 4420 nM | > 25000

SMILES | GI50 | TGI [nM]
COc1ccc2c(c1)C(=O)c1c-2c(=O)n(CCCCCCC(=O)NO)c2ccccc12 | 46.3 nM | 449
CC1CN=C(c2cccc(-c3ccc(-c4ccccc4)o3)c2)N1 (stereo not drawn) | 1690 nM | 3920
COc1cccc(-n2ncc3c(N/N=C/c4cccc(F)c4)ncnc32)c1 | 5440 nM | 13600
O=C(C1CC1)N1CC[C@@H](Cc2n[nH]c(=O)n2-c2ccc(-c3ccc4occc4c3)cc2)C1 | 20300 nM | 98100
Cc1cc(-c2ccc(C3C(C#N)=C(N)Oc4c3c(=O)oc3ccccc43)cc2)cnc1F (stereo not drawn) | 17500 nM | 82500
N=C(N)c1ccc(-c2ccc(-c3ccc(F)cc3)s2)nc1 | 1630 nM | 3380
C1CCC(C(CC2CCCCN2)C2CCCCC2)CC1 (stereo not drawn) | 1370 nM | 2850
CNC[C@@H](NC(=O)c1ccc(-c2nc([C@H]3CC[C@H](O)[C@@H](F)C3)cnc2N)cc1F)c1cc(F)cc(Br)c1 | 13200 nM | 28400
COC(=O)[C@@H](C)C[C@H](Cc1ccccc1)NC(=O)c1nc([C@@H](C[C@H](C(C)C)N(C)C(=O)[C@@H](NC(=O)[C@H]2CCCCN2C)C(C)C)OC(C)=O)sc1C(C)C | < 3.33 nM | 137
NC(=O)c1cc(Cl)ccc1NC(=O)COc1ccccc1 | 1740 nM | > 100000
Cc1cnc(NC2CCOCC2)nc1-n1cnc(C(=O)N[C@H](CN)c2cc(F)cc(Cl)c2)c1 | 2670 nM | 11800
COc1ccc(-c2cn(-c3cccc(C(=O)/C=C/c4cc(OC)c(OC)c(OC)c4)c3)c(=O)[nH]2)cc1 | 3070 nM | 10800
CCCCCCCCCOc1c(OC)cc(C2CC(=O)Nc3c2c(C)nn3-c2nc3ccccc3[nH]2)cc1OC (stereo not drawn) | 891 nM | 2090
O=C1C=C(Nc2cccnc2)c2ccccc2C1=O | 3200 nM | 11100
CC(C)CNC(=O)c1ccc(NC(=O)N(CC(C)C)C(=O)c2ccc(N)c(OCCCN)c2)c(OCCCN=C(N)N)c1 | > 62500 nM | > 62500
COC(=O)CCC1=C(C)C(C)=N/C1=C\c1[nH]c(-c2ccc[nH]2)cc1OC | 647 nM | 2700
C=C(C)[C@@H]1CC[C@]2(C)[C@H](CC[C@@H]3[C@@H]([C@@](C)(O)CCC=C(C)C)CC[C@]32C)[C@@]1(C)CCC(=O)N1CCN(C)CC1 | 5490 nM | 18500
N=C(N)c1ccc(-c2ccc(-c3cccs3)o2)cc1 | 1720 nM | 3400
O=c1[nH]c2c3ccncc3cc(-c3cccc(Cl)c3)c2c2cnccc12 | > 100000 nM | > 100000
COc1ccc2[nH]c(=O)c(/C=C/C(=O)c3ccccc3OC)cc2c1 | 336 nM | 1650
CO[C@H]1C[C@@H]2CC[C@@H](C)[C@@](O)(O2)C(=O)C(=O)N2CCCC[C@H]2C(=O)O[C@H]([C@H](C)C[C@@H]2CC[C@@H](O)[C@H](OC)C2)CC(=O)[C@H](C)C=C(C)[C@@H](O)[C@@H](OC)C(=O)[C@H](C)C[C@H](C)/C=C/C=C/C=C1C | 0.0364 nM and 0.315 nM | 13400
